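Five compound concentrations were applied to cells in 96-well plates for 48 hours; endpoints were derived by simple linear interpolation of the resulting dose-response curve. The concentration for 50% growth inhibition is given as GI50.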 Calls of active or inactive are those of the source. Rule as the data show it: active = GI50 up to about 1.1 µM and inactive = higher.
Tests used:
Test in all cases: inhibition of tumour cell growth, NCI panel, 48 h
[1] = test system: 786-0
[2] = test system: A549
[3] = test system: ACHN
[4] = test system: CAKI-1
[5] = test system: CCRF-CEM
[6] = test system: COLO 205
[7] = test system: DLD-1
[8] = test system: DMS-114
[9] = test system: DMS-273
[10] = test system: EKVX
[11] = test system: HCC 2998
[12] = test system: HCT-116
[13] = test system: HCT-15
[14] = test system: HL-60
[15] = test system: HOP-62
[16] = test system: HOP-92
[17] = test system: HT-29
[18] = test system: IGROV-1
[19] = test system: K562
[20] = test system: KM-20L2
[21] = test system: KM12
[22] = test system: LOX IMVI
[23] = test system: LXFL 529
[24] = test system: MOLT-4
[25] = test system: Malme-3M
[26] = test system: NCI-H226
[27] = test system: NCI-H23
[28] = test system: NCI-H460
[29] = test system: NCI-H522
[30] = test system: OVCAR-3
[31] = test system: OVCAR-5
[32] = test system: OVCAR-8
[33] = test system: RPMI-8226
[34] = test system: RXF 393
[35] = test system: RXF 631
[36] = test system: SF-268
[37] = test system: SF-295
[38] = test system: SF-539
[39] = test system: SK-MEL-28
[40] = test system: SK-MEL-2
[41] = test system: SK-MEL-5
[42] = test system: SK-OV-3
[43] = test system: SN12C
[44] = test system: SNB-19
[45] = test system: SR
[46] = test system: SW-620
[47] = test system: TK-10
[48] = test system: U-251
[49] = test system: UACC-257
[50] = test system: UACC-62
[51] = test system: XF498
[52] = test system: A498
[53] = test system: BT-549
[54] = test system: DU-145
[55] = test system: HOP-18
[56] = test system: Hs-578T
[57] = test system: M14
[58] = test system: M19-MEL
[59] = test system: MCF7
[60] = test system: MDA-MB-435
[61] = test system: MDA-N
[62] = test system: OVCAR-4
[63] = test system: PC-3
[64] = test system: SNB-75
[65] = test system: T47D
[66] = test system: UO-31

Measured: GI50

N/N=c1/nc2n(c3ncccc13)C=CNN2
> 100 µM: [13]
inactive: [1] > 100 µM | [2] > 100 µM | [3] > 100 µM | [4] > 100 µM | [5] > 100 µM | [6] > 100 µM | [7] > 100 µM | [8] > 100 µM | [9] > 100 µM | [10] > 100 µM | [11] > 100 µM | [12] > 100 µM | [14] > 100 µM | [15] > 100 µM | [16] > 100 µM | [17] > 100 µM | [18] > 100 µM | [19] > 100 µM | [20] > 100 µM | [21] > 100 µM | [22] > 100 µM | [23] > 100 µM | [24] > 100 µM | [25] > 100 µM | [26] > 100 µM | [27] > 100 µM | [28] > 100 µM | [29] > 100 µM | [30] > 100 µM | [31] > 100 µM | [32] > 100 µM | [33] > 100 µM | [34] > 100 µM | [35] > 100 µM | [36] > 100 µM | [37] > 100 µM | [38] > 100 µM | [39] > 100 µM | [40] > 100 µM | [41] > 100 µM | [42] > 100 µM | [43] > 100 µM | [44] > 100 µM | [45] > 100 µM | [46] > 100 µM | [47] > 100 µM | [48] > 100 µM | [49] > 100 µM | [50] > 100 µM | [51] > 100 µM

COC(=O)NNc1c([N+](=O)[O-])cnn(-c2ccccc2)c1=O
inactive: [1] 3.32 µM | [52] 27.3 µM | [2] 12.4 µM | [3] 4.44 µM | [53] 1.82 µM | [4] 3.98 µM | [6] 2.11 µM | [7] 2.06 µM | [8] 3.37 µM | [9] 1.98 µM | [54] 5.62 µM | [10] 3.82 µM | [11] 5.36 µM | [12] 1.78 µM | [14] 1.39 µM | [55] 2.82 µM | [15] 7.21 µM | [16] 2.18 µM | [17] 2.04 µM | [56] 4.53 µM | [18] 17.9 µM | [20] 3.37 µM | [21] 5.19 µM | [22] 1.66 µM | [23] 1.73 µM | [57] 1.8 µM | [58] 1.87 µM | [59] 3.99 µM | [60] 1.66 µM | [61] 2.85 µM | [25] 2.47 µM | [26] 4.19 µM | [27] 2.67 µM | [28] 3.96 µM | [30] 1.97 µM | [62] 2.07 µM | [31] 4.44 µM | [32] 1.78 µM | [63] 1.79 µM | [33] 2.44 µM | [34] 3.73 µM | [35] 2.08 µM | [36] 3.1 µM | [37] 3.46 µM | [38] 3.29 µM | [39] 3.83 µM | [40] 2.95 µM | [41] 4.07 µM | [42] 9.71 µM | [43] 1.99 µM | [44] 10.5 µM | [64] 7.48 µM | [65] 2.21 µM | [47] 18.1 µM | [48] 2.62 µM | [49] 2.51 µM | [50] 2.11 µM | [66] 8.93 µM
active: [5] 0.302 µM | [19] 1.04 µM | [24] 0.815 µM | [29] 0.995 µM | [45] 0.497 µM | [46] 1.07 µM
2.45 µM: [13]
